Values of other authors as cited in US7479481B2, “Treatment of ocular diseases and disorders using lantibiotic compositions” (Molichem Medicines, Inc., priority 2004, dated 2009).

System: clatharin-coated vesicle acidification
Conditions: clatharin-coated vesicles; Stone et al., J. Biol. Chem. 259: 2701-2703 (1984)

## duramycin
  inhibition of the proton translocation facilitated by chloride translocation: up to 50%
